From patent US6281342A, “Pradimicin compounds” (Bristol-Myers Squibb Company, priority 1994, dated 2001)
In brackets after ≈: the same amount, converted by molar mass. Where two headings read alike, the source gives them in different places.

Tests used:
[1] = Water solubility at neutral pH in PBS containing Ca^2+/Mg^2+; format: physicochemical; details: pbs with ca2+/mg2+; Table 3; water-solubility at neutral pH in phosphate buffered saline containing Ca^2+/Mg^2+
Procedure: The compounds of the invention have good water solubility. Typically, the water solubility is greater than 10 mg/ml when measured at neutral pH in PBS containing Ca^2+ /Mg^2+, preferably greater than 20 mg/ml.
^2) Water-solubility at neutral pH in phosphate buffered saline
containing Ca^2+ /Mg^2+.

[2] = test system: Candida tropicalis IFO 10241; assay: MIC, two-fold agar dilution, C. tropicalis IFO 10241; format: cell-based; details: IFO10241, YMA pH 7.0, 28° C., 40 hours
Procedure: (§1) Minimum inhibitory concentrations (MICs) of nine 4'-N-substituted pradimicin derivatives were determined by two-fold agar dilution method on phosphate-buffered yeast morphology agar (YMA, pH 7.0, Difco Laboratories). A 5-μl of fungal cell suspension containing 2×10^6 cells/ml (2×10^7 cells/ml for Trichophyton mentagrophytes) were spotted on the surface of the agar plates containing test compound. MICs were recorded after 40-hour incubation at 28° C. except for T. mentagrophytes, which required 60-hour incubation to produce visually evaluable growth on the drug-free control plates and were defined as the lowest antibiotic concentrations showing no growth or less than five discrete colonies per spot.
(§2) Medium: yeast morphology agar + 1/15 M phosphate buffer (pH 7.0)
(§3) Incubation conditions: 28° C., 40 hours (C. albicans ATCC 38247 & T.
(§4) Medium: Yeast morphology agar + 1/15 phosphate buffer (pH 7.0).

Candida albicans A9540 [3] = assay: animal or person; format: in vivo, male ICR mice infected with Candida albicans A9540; details: Candida albicans; for ED50: Table 2, 95% confidence limits in parentheses, read-out: PD50 (50% protection dose)
Procedure: (§5) The in vivo therapeutic efficacies of seven 4'-N-substituted pradimicin derivatives, KHM-1, KHM-2, KHM-3, KHM-4, KHM-5, KHM-6 and KHM-7 were evaluated in the mouse infected with Candida albicans A9540 and Aspergillus fumigatusIAM 2034. Groups of five specific-pathogen-free male ICR mice weighing 20-25 g at each dose level were intravenously infected with approximately 10 times the 50% lethal dose of C. albicans A9540 (1×10^6 cells/mouse) or A. fumigatus IAM 2034 (1×10^7 cells/mouse). Immediately after the fungal infection, test compounds dissolved with 10% DMSO in distilled water were intravenously given to the mouse at the dosed volume of 0.1 ml/10 g of body weight. […] Untreated control animals died 7 to 13 days post-infection.

[4] = test system: Trichophyton mentagrophytes #4329; assay: MIC, two-fold agar dilution, T. mentagrophytes #4329; format: cell-based
Procedure: as §1, §2, §3
(§6) mentagrophytes #4329: 28° C., 60 hours).
as §4

[5] = test system: Aspergillus fumigatus IAM 2034; assay: MIC, two-fold agar dilution, A. fumigatus IAM 2034; format: cell-based; details: IAM2034
Procedure: as §1, §2, §3, §4

[6] = test system: Candida albicans ATCC 32354; assay: MIC, two-fold agar dilution, C. albicans ATCC 32354; format: cell-based; details: ATCC32354, YMA pH 7.0, 28° C., 40 hours
Procedure: as §1, §2, §3, §4

[7] = test system: Candida albicans ATCC 38247; assay: MIC, two-fold agar dilution, C. albicans ATCC 38247; format: cell-based; details: ATCC38247, YMA pH 7.0, 28° C., 60 hours (table footnote)
Procedure: as §1, §2, §3, §6, §4

[8] = test system: Saccharomyces cerevisiae ATCC 9763; assay: MIC, two-fold agar dilution, S. cerevisiae ATCC 9763; format: cell-based; details: ATCC9763, YMA pH 7.0, 28° C., 40 hours
Procedure: as §1, §2, §3, §4

Candida albicans 83-2-14 = assay: MIC, two-fold agar dilution, C. albicans 83-2-14; format: cell-based; details: 83214, YMA pH 7.0, 28° C., 40 hours
Procedure: as §1, §2, §3, §4

[9] = test system: Cryptococcus neoformans D49; assay: MIC, two-fold agar dilution, C. neoformans D49; format: cell-based; details: YMA pH 7.0, 28° C., 40 hours
Procedure: as §1, §2, §3, §4

Candida tropicalis 85-8 = assay: MIC, two-fold agar dilution, C. tropicalis 85-8; format: cell-based; details: 858, YMA pH 7.0, 28° C., 40 hours
Procedure: as §1, §2, §3, §4

[10] = test system: Aspergillus fumigatus IAM 2034; assay: Therapeutic efficacy in Aspergillus fumigatus systemic infection in mice; format: in vivo, male ICR mice infected with Aspergillus fumigatus IAM 2034; details: IAM2034, 480 h; for responders at 6.3 mg/kg: 6.3 mg/kg iv; for responders at 6.3 mg/kg / responders at 12.5 mg/kg / responders at 25 mg/kg / responders at 50 mg/kg: 20th day post-infection, read-out: S/T (No. of survivors/tested) (converted); for responders at 12.5 mg/kg: 12.5 mg/kg iv; for responders at 25 mg/kg: 25 mg/kg iv; for responders at 50 mg/kg: 50 mg/kg iv
Procedure: as §5

[11] = test system: Candida albicans IAM 4888; assay: MIC, two-fold agar dilution, C. albicans IAM 4888; format: cell-based; details: IAM4888, YMA pH 7.0, 28° C., 40 hours
Procedure: as §1, §2, §3, §4

Candida albicans A9540 [12] = assay: MIC, two-fold agar dilution, C. albicans A9540; format: cell-based
Procedure: as §1, §2, §3, §4

[13] = test system: Cryptococcus neoformans IAM 4514; assay: MIC, two-fold agar dilution, C. neoformans IAM 4514; format: cell-based; details: IAM4514
Procedure: as §1, §2, §3, §4

[14] = A9540, 480 h, C. albicans, mice, iv
[15] = A9540, in Mus musculus, iv, 480 h, read-out: S/T (No. of survivors/tested)
[16] = Table 3, Trichophyton mentagrophytes #4329, YMA, read-out: MIC TM-4
[17] = Trichophyton mentagrophytes #4329, YMA pH 7.0, 28° C., 60 hours, read-out: MIC
[18] = Aspergillus fumigatus IAM 2034, YMA pH 7.0, 28° C., 40 hours, read-out: MIC
[19] = Table 3, Aspergillus fumigatus IAM 2034, YMA, read-out: MIC Af-3
[20] = Aspergillus fumigatus, A. fumigatus, mice
[21] = Aspergillus fumigatus, Table 2, A. fumigatus, mice, iv, 95% confidence limits in parentheses, read-out: PD50 (50% protection dose)
[22] = Table 3, Aspergillus fumigatus IAM 2034, iv, read-out: PD50 (mice) Af-3
[23] = Candida albicans A9540, YMA pH 7.0, 28° C., 40 hours, read-out: MIC
[24] = Table 3, Candida albicans A9540, YMA, read-out: MIC Ca-4
[25] = Cryptococcus neoformans IAM 4514, YMA pH 7.0, 28° C., 40 hours, read-out: MIC
[26] = Table 3, Cryptococcus neoformans IAM 4514, YMA, read-out: MIC Cn-2

Structure (SMILES) | solubility [1] | MIC [2] | ED50 (Candida albicans A9540 [3]; [14]) | MIC [4, 16] | MIC [4, 17] | MIC [5, 18] | MIC [5, 19] | MIC [6] | MIC [7] | MIC [8] | MIC (Candida albicans 83-2-14) | MIC [9] | MIC (Candida tropicalis 85-8) | responders at 6.3 mg/kg [10, 20] | responders at 12.5 mg/kg [10, 20] | responders at 25 mg/kg [10, 20] | responders at 50 mg/kg [10, 20] | ED50 [10, 21] | ED50 [10, 22] | MIC [11] | further results
COc1cc(O)c2c(c1)C(=O)c1c(cc3c(c1O)-c1c(cc(C)c(C(=O)N[C@H](C)C(=O)O)c1O)[C@H](O[C@@H]1O[C@H](C)[C@H](NC(=N)N[N+](=O)[O-])[C@H](O[C@@H]4OC[C@@H](O)[C@H](O)[C@H]4O)[C@H]1O)[C@H]3O)C2=O [KHM-7, 4'-Nitroquanidinopradimicin C] | > 20 mg/mL | 12.5 µg/mL (≈ 13.7 µM) | 12 mg/kg | 3.1 µg/mL (≈ 3.39 µM) | 3.1 µg/mL (≈ 3.39 µM) | 3.1 µg/mL (≈ 3.39 µM) | 3.1 µg/mL (≈ 3.39 µM) | 3.1 µg/mL (≈ 3.39 µM) | 1.6 µg/mL (≈ 1.75 µM) | 3.1 µg/mL (≈ 3.39 µM) | 6.3 µg/mL (≈ 6.89 µM) | 3.1 µg/mL (≈ 3.39 µM) | 12.5 µg/mL (≈ 13.7 µM) | 20% | 40% | 0% | 20% | > 50 mg/kg | > 50 mg/kg | 3.1 µg/mL (≈ 3.39 µM) | responders at 6.3 mg/kg (Candida albicans A9540 [3]; [15]): 40%; responders at 12.5 mg/kg (Candida albicans A9540 [3]; [15]): 60%; responders at 25 mg/kg (Candida albicans A9540 [3]; [15]): 60%; responders at 50 mg/kg (Candida albicans A9540 [3]; [15]): 80%; MIC (Candida albicans A9540 [12]; [23]): 3.1 µg/mL (≈ 3.39 µM); MIC (Candida albicans A9540 [12]; [24]): 3.1 µg/mL (≈ 3.39 µM); MIC [13, 25]: 1.6 µg/mL (≈ 1.75 µM); MIC [13, 26]: 1.6 µg/mL (≈ 1.75 µM)
COc1cc(O)c2c(c1)C(=O)c1c(cc3c(c1O)-c1c(cc(C)c(C(=O)N[C@H](CO)C(=O)O)c1O)[C@H](O[C@@H]1O[C@H](C)[C@H](NC#N)[C@H](O[C@@H]4OC[C@@H](O)[C@H](O)[C@H]4O)[C@H]1O)[C@H]3O)C2=O [KHM-4, 4'-N-Cyanopradimicin FA2] | > 20 mg/mL | 12.5 µg/mL (≈ 14.4 µM) | 20 mg/kg | 12.5 µg/mL (≈ 14.4 µM) | 12.5 µg/mL (≈ 14.4 µM) | 6.3 µg/mL (≈ 7.26 µM) | 6.3 µg/mL (≈ 7.26 µM) | 3.1 µg/mL (≈ 3.57 µM) | 3.1 µg/mL (≈ 3.57 µM) | 3.1 µg/mL (≈ 3.57 µM) | 6.3 µg/mL (≈ 7.26 µM) | 6.3 µg/mL (≈ 7.26 µM) | 12.5 µg/mL (≈ 14.4 µM) | 0% | 0% | 0% | 0% | > 50 mg/kg | > 50 mg/kg | 6.3 µg/mL (≈ 7.26 µM) | responders at 6.3 mg/kg (Candida albicans A9540 [3]; A9540, 480 h, C. albicans, mice, 6.3 mg/kg iv, 20th day post-infection, read-out: S/T (No. of survivors/tested) (converted)): 0%; responders at 12.5 mg/kg (Candida albicans A9540 [3]; A9540, 480 h, C. albicans, mice, 12.5 mg/kg iv, 20th day post-infection, read-out: S/T (No. of survivors/tested) (converted)): 20%; responders at 25 mg/kg (Candida albicans A9540 [3]; A9540, 480 h, C. albicans, mice, 25 mg/kg iv, 20th day post-infection, read-out: S/T (No. of survivors/tested) (converted)): 60%; responders at 50 mg/kg (Candida albicans A9540 [3]; A9540, 480 h, C. albicans, mice, 50 mg/kg iv, 20th day post-infection, read-out: S/T (No. of survivors/tested) (converted)): 80%; MIC (Candida albicans A9540 [12]; [23]): 6.3 µg/mL (≈ 7.26 µM); MIC (Candida albicans A9540 [12]; [24]): 6.3 µg/mL (≈ 7.26 µM); MIC [13, 25]: 3.1 µg/mL (≈ 3.57 µM); MIC [13, 26]: 3.1 µg/mL (≈ 3.57 µM)
